# Experimental data taken from patent US12071425B2 (Genentech, Inc., priority 2018, dated 2024).
# Structures can show the parent of a compound that is named as a salt.
# Target: kinase domain of IRE1 alpha (His-tagged kinase dead construct KR, AA G547-L977, D688N) (Homo sapiens (Human), UniProt O75460, D688N)
# Assay: IRE1α TR-FRET competition binding assay
# Settings: competition with Kinase Tracer 236, 0.1 μM; one hour at room temperature
# Description: To determine the affinity of compound binding to the kinase domain of IRE1 alpha, a Time Resolved Fluorescence Resonance Energy Transfer (TR-FRET) competition assay was used. A His-tagged IRE1 alpha kinase dead construct containing the kinase and RNase domains (KR, AA G547-L977, D688N) was expressed in Sf9 insect cells. The purified protein (final concentration 0.006 μM micromolar) was pre-incubated with anti-His Europium labeled antibody (Life Technologies PV5596, final concentration 0.002 μM micromolar) for one hour at 4° C. in 1X TR-FRET Assay Buffer (50 mM HEPES, pH 7.5.10 mM MgCl2, 0.083 mM Brij 35, 1 mM DTT, and 0.1% bovine gamma globulin) prior to addition to test compounds. A fluorescent labeled probe based on an ATP competitive inhibitor (Kinase Tracer 236, Life Technologies PV5592) is added to a final concentration of 0.1 μM (micromolar). Reactions were carried out for one hour at room temperature in a final volume of 20 μL (microliter) in 384 well white ProxiPlates (Perkin Elmer 6008289). Binding of the tracer to the IRE1 protein alpha was detected in an Envision instrument (PerkinElmer) equipped with a TRF laser option and a LANCE/Delfia Dual/Bias D400/D630 mirror (Ex 347 nm, 1st Em 665 nm, 2nd Em 615 nm).
# Exemplary compounds in Table A1 were tested in the IRE1α binding assays.
# Sequence of kinase domain of IRE1 alpha (His-tagged kinase dead construct KR, AA G547-L977, D688N) (O75460 547-977 D688N): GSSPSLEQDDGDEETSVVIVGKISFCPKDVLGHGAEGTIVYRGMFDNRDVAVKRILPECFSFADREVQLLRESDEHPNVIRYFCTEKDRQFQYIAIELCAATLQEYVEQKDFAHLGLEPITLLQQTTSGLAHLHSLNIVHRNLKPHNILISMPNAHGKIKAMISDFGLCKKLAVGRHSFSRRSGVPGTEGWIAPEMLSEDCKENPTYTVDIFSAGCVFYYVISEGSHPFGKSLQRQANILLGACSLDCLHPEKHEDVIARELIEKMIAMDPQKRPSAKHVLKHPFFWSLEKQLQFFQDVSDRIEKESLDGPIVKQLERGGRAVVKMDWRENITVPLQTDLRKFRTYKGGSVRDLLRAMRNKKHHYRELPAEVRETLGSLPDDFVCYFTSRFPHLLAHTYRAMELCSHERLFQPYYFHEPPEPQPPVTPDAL
row,SMILES,IC50
1,"CC(F)C1CNCC(Nc2nccc(-c3cccnc3Oc3cc(F)c(NS(=O)(=O)Cc4ccccc4)c(F)c3F)n2)C1 (single isomer, unassigned) [Compound 346, 1-Phenyl-N-(2,3,6-trifluoro-4-((3-(2-((5-(1-fluoroethyl)piperidin-3-yl)amino)pyrimidin-4-yl)pyridin-2-yl)oxy)phenyl)methanesulfonamide]",72 nM
2,"CC(F)C1CNCC(Nc2nccc(-c3cccnc3Oc3cc(F)c(NS(=O)(=O)Cc4ccccc4)c(F)c3F)n2)C1 (single isomer, unassigned) [Compound 347, 1-Phenyl-N-(2,3,6-trifluoro-4-((3-(2-((5-(1-fluoroethyl)piperidin-3-yl)amino)pyrimidin-4-yl)pyridin-2-yl)oxy)phenyl)methanesulfonamide]",49 nM
3,"Cc1cc(NS(=O)(=O)c2ccccc2Cl)ccc1Oc1ncccc1-c1ccnc(N[C@H]2CC[C@H](N)CC2)n1 [Compound 101, N-[4-[[3-[2-[(4-aminocyclohexyl)amino]pyrimidin-4-yl]-2-pyridyl]oxy]-3-methyl-phenyl]-2-chloro-benzenesulfonamide hydrochloride]",13 nM
4,"Cc1cc(NS(=O)(=O)c2ccccc2Cl)cc(F)c1Oc1ncccc1-c1ccnc(N[C@H]2CC[C@H](N)CC2)n1 [Compound 102, N-[4-[[3-[2-[(4-aminocyclohexyl)amino]pyrimidin-4-yl]-2-pyridyl]oxy]-3-fluoro-5-methyl-phenyl]-2-chloro-benzenesulfonamide hydrochloride]",10 nM
5,"Cc1ccc(C(=O)NS(=O)(=O)c2ccccc2Cl)cc1Oc1ncccc1-c1ccnc(N[C@H]2CCCNC2)n1 [Compound 103, (S)-N-((2-chlorophenyl)sulfonyl)-4-methyl-3-((3-(2-(piperidin-3-ylamino)pyrimidin-4-yl)pyridin-2-yl)oxy)benzamide]",30 nM
6,"N[C@H]1CC[C@H](Nc2nccc(-c3cccnc3Oc3c(F)cc(NS(=O)(=O)c4ccccc4Cl)cc3Cl)n2)CC1 [Compound 104, N-[4-[[3-[2-[(4-aminocyclohexyl)amino]pyrimidin-4-yl]-2-pyridyl]oxy]-3-chloro-5-fluoro-phenyl]-2-chloro-benzenesulfonamide hydrochloride]",5.9 nM
7,"O=S(=O)(CCC(F)(F)F)Nc1ccc(Oc2ncccc2-c2ccnc(N[C@H]3CCCNC3)n2)cc1F [Compound 105, (S)-3,3,3-trifluoro-N-(2-fluoro-4-((3-(2-(piperidin-3-ylamino)pyrimidin-4-yl)pyridin-2-yl)oxy)phenyl)propane-1-sulfonamide hydrochloride]",27 nM
8,"O=S(=O)(Cc1ccccc1)Nc1ccc(Oc2ncccc2-c2ccnc(N[C@H]3CCCNC3)n2)cc1F [Compound 106, (S)-N-(2-fluoro-4-((3-(2-(piperidin-3-ylamino)pyrimidin-4-yl)pyridin-2-yl)oxy)phenyl)-1-phenylmethanesulfonamide hydrochloride]",5.7 nM
9,"O=S(=O)(Cc1ccccc1)Nc1cc(F)c(Oc2ncccc2-c2ccnc(N[C@H]3CCCNC3)n2)cc1F [Compound 107, (S)-N-(2,5-difluoro-4-((3-(2-(piperidin-3-ylamino)pyrimidin-4-yl)pyridin-2-yl)oxy)phenyl)-1-phenylmethanesulfonamide hydrochloride]",5.2 nM
10,"O=S(=O)(CCC(F)(F)F)Nc1cc(F)c(Oc2ncccc2-c2ccnc(N[C@H]3CCCNC3)n2)cc1F [Compound 109, (S)-N-(2,5-difluoro-4-((3-(2-(piperidin-3-ylamino)pyrimidin-4-yl)pyridin-2-yl)oxy)phenyl)-3,3,3-trifluoropropane-1-sulfonamide hydrochloride]",26 nM
11,"O=S(=O)(Cc1ccccc1)Nc1ccc(Oc2ncccc2-c2ccnc(N[C@@H]3CNC[C@@H](F)C3)n2)c(F)c1F [Compound 112, N-(2,3-difluoro-4-((3-(2-(((3S,5S)-5-fluoropiperidin-3-yl)amino)pyrimidin-4-yl)pyridin-2-yl)oxy)phenyl)-1-phenylmethanesulfonamide]",4.6 nM
12,"O=S(=O)(Cc1ccccc1)Nc1ccc(Oc2ncccc2-c2ccnc(N[C@H]3CCCNC3)n2)cc1C(F)(F)F [Compound 113, (S)-1-phenyl-N-(4-((3-(2-(piperidin-3-ylamino)pyrimidin-4-yl)pyridin-2-yl)oxy)-2-(trifluoromethyl)phenyl)methanesulfonamide]",11 nM
13,"Cc1cc(NS(=O)(=O)c2ccccc2Cl)cc(F)c1Oc1ncccc1-c1ccnc(N[C@H]2CCCNC2)n1 [Compound 114, (S)-2-chloro-N-(3-fluoro-5-methyl-4-((3-(2-(piperidin-3-ylamino)pyrimidin-4-yl)pyridin-2-yl)oxy)phenyl)benzenesulfonamide hydrochloride]",7.3 nM
14,"CCCCS(=O)(=O)Nc1cc(C)c(Oc2ncccc2-c2ccnc(N[C@H]3CCCNC3)n2)c(F)c1 [Compound 115, (S)-N-(3-fluoro-5-methyl-4-((3-(2-(piperidin-3-ylamino)pyrimidin-4-yl)pyridin-2-yl)oxy)phenyl)butane-1-sulfonamide hydrochloride]",30 nM

# Stronger by IC50, values ahead:
row,IC50,SMILES
1,0.2 nM,"CC(F)C1CNCC(Nc2nccc(-c3cccnc3Oc3cc(F)c(NS(=O)(=O)Cc4ccccc4)c(F)c3F)n2)C1 (single isomer, unassigned) [Compound 348, 1-Phenyl-N-(2,3,6-trifluoro-4-((3-(2-((5-(1-fluoroethyl)piperidin-3-yl)amino)pyrimidin-4-yl)pyridin-2-yl)oxy)phenyl)methanesulfonamide]"
2,0.2 nM,"C[C@@H](c1ccccc1)S(=O)(=O)Nc1c(F)cc(Oc2ncccc2-c2ccnc(N[C@@H]3CNC[C@@H](F)C3)n2)c(F)c1F (single isomer, unassigned) [Compound 387, (*S)-1-Phenyl-N-(2,3,6-trifluoro-4-((3-(2-(((3S,5S)-5-fluoropiperidin-3-yl)amino)pyrimidin-4-yl)pyridin-2-yl)oxy)phenyl)ethane-1-sulfonamide]"
3,0.8 nM,"C[C@H](c1ccccc1)S(=O)(=O)Nc1c(F)cc(Oc2ncccc2-c2ccnc(N[C@@H]3CNC[C@@H](F)C3)n2)c(F)c1F (single isomer, unassigned) [Compound 388, (*R)-1-phenyl-N-(2,3,6-trifluoro-4-((3-(2-(((3S,5S)-5-fluoropiperidin-3-yl)amino)pyrimidin-4-yl)pyridin-2-yl)oxy)phenyl)ethane-1-sulfonamide]"
4,0.35 nM,"O=S(=O)(Cc1ccc(F)cc1)Nc1c(F)cc(Oc2ncccc2-c2ccnc(N[C@@H]3CNCC(CF)C3)n2)c(F)c1F (stereo in doubt) [Compound 316, 1-(4-Fluorophenyl)-N-(2,3,6-trifluoro-4-((3-(2-(((3S,5S)-5-(fluoromethyl)piperidin-3-yl)amino)pyrimidin-4-yl)pyridin-2-yl)oxy)phenyl)methanesulfonamide]"
5,3.4 nM,"O=S(=O)(Cc1ccccc1)Nc1ccc(Oc2ncccc2-c2ccnc(N[C@H]3CCCNC3)n2)c(F)c1F [Compound 108, (S)-N-(2,3-difluoro-4-((3-(2-(piperidin-3-ylamino)pyrimidin-4-yl)pyridin-2-yl)oxy)phenyl)-1-phenylmethanesulfonamide hydrochloride]"
6,4.4 nM,"C[C@H]1CNC[C@@H](Nc2nccc(-c3cccnc3Oc3ccc(NS(=O)(=O)Cc4ccccc4)c(F)c3F)n2)C1 [Compound 111, N-(2,3-difluoro-4-((3-(2-(((3S,5R)-5-methylpiperidin-3-yl)amino)pyrimidin-4-yl)pyridin-2-yl)oxy)phenyl)-1-phenylmethanesulfonamide hydrochloride]"
